The target of this assay is variola topoisomerase (Variola virus, UniProt P32989). In kind it is biochemical.
Chain of variola topoisomerase (P32989 whole entry, looked up): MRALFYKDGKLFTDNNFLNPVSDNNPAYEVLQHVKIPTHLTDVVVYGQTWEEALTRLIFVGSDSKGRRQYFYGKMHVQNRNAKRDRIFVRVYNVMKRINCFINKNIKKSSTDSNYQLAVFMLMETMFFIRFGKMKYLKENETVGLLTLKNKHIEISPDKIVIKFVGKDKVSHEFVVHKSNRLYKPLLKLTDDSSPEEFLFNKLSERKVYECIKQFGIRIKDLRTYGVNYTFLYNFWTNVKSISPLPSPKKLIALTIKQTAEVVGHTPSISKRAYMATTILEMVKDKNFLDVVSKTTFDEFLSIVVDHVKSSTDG

With `CCOC(=O)c1c(O)c2cc(-c3cccc(OC)n3)cnc2n(O)c1=O` [Compound 7], the “Inhibition of variola topoisomerase activity” value is on record as “no inhibitory activity”.

Source of the values: publication PMC3439875 (Nucleic Acids Research, 2012).
